Measured values from patent publication US20050112123A1, “Methods of treating proteinuria” (priority 2003, published 2005).

Experiments:
[1] = system: mouse podocytes; assay: MTT cell proliferation assay, mouse podocytes; format: cell-based; conditions: at higher concentrations of ATRA than required with rat podocytes
Experimental: Experiments were also performed on podocytes derived from C57/bl mice. Glomeruli were sieved and prepared as previously described. […] 61:40-50. Podocytes were grown on collagen 1 coated plates with MGEC-media containing 5% fetal bovine serum (FBS: Summit biotechnology, Ft. Collins, Colo., USA), penicillin (100 U/ml), streptomycin (100 μg/ml), and glutamine (2 mmol/L; all Irvine Scientific, Santa Ana, Calif., USA) at 37° C. in 95% air/5% CO2. Podocytes were identified by previously described criteria (Shankland et al. (1999) supra) and by confirming the presence of podocyte specific proteins—including WT-1, nephrin, podocin, and ezrin—by immunostaining.
Exposure ofpodocvtes to ATRA. Rat podocytes, mouse podocytes, and growth permissive HSMP were plated at a concentration of 15,000 cell/cm^2 in standard media and allowed to adhere overnight.

[2] = system: C57BL6 mice with anti-glomerular antibody-mediated podocyte injury; assay: Anti-glomerular antibody model of podocyte injury: renal function (proteinuria, BUN); format: in vivo, mouse; conditions: for BUN increase: anti-glomerular disease; for proteinuria vs control (vehicle): mice with anti-glomerular disease, ATRA 16.6 mg/kg IP daily, P<0.001, FIG. 3
Experimental: An antibody-mediated model of podocyte injury was induced in C57BL6 mice with a sheep anti-glomerular antibody (two doses of 0.3 ml/20 gm body weight) over two consecutive days. Kim et al. (1999) Kidney Int 55:2349-2361; and Ophascharoensuk et al. (1998) Kidney Int 54:416-425. After the induction of the anti-glomerular model, but before the development of proteinuria, mice were then divided into an experimental group that received daily injections of ATRA 16.6 mg/kg (IP), and a control group that received vehicle (corn oil). Experimental and control animals were studied on day 7 and 14 (n=5 per group/time point). The podocyte specific proteins WT-1, nephrin, podocin, synaptopodin, were measured by immunostaining at each time point, as was the proliferation marker, PCNA (see above). Using proliferating cell nuclear antigen (PCNA) as a marker of proliferation and WT-1 as a marker for podocytes, the level of podocyte proliferation was determined.
Renal Function Assessment. Control and experimental mice were placed in metabolic urine collection cages in order to obtain a timed collection for urinalysis. Urine was analyzed for protein content utilizing the sulphosalicylic acid (SSA) method as previously described. Shankland et al. (1996) Kidney Int. 50:116-124. Serum was also collected from mice in order to evaluate blood urea nitrogen (BUN) levels. The BUN kit (Sigma Chemicals, St. Louis, Mo., USA) is based on the direct interaction of urea with diacetyl monomoxime […]. The absorbance obtained from serum samples is compared with a standard curve of increasing concentrations of urea nitrogen standards.

[3] = system: transgenic podocytes; assay: Direct visualization (sequential photographs) of plated podocytes; format: cell-based, mouse; conditions: addition of ATRA
Experimental: Cellular proliferation was also assessed through direct visualization of 10 cm plated cells at d 1, 2, 4, 6 and 8 growth restriction. Proliferation was assessed by the number of cells seen within a small circle marked on the plate. A total of four circles were marked and observed per plate. The circles were numbered #1-4 and photographed at the above time points. One exemplary circle was chosen per plate and followed through all time points. The four groups were compared at all time points.

CC1=C(/C=C/C(C)=C/C=C/C(C)=C/C(=O)O)C(C)(C)CCC1 [ATRA, all-trans retinoic acid]
MTT absorbance [1]: significantly reduced MTT absorbance
BUN increase ([2]; day 7): not altered
BUN increase ([2]; day 14): not altered
proteinuria vs control (vehicle) ([2]; day 7): significantly reduced proteinuria
proteinuria vs control (vehicle) ([2]; day 14): significantly reduced proteinuria
proliferation of transgenic podocytes (sequential photographs, 10 cm culture dishes) [3]: attenuated
